According to patent publication US20260176320A1, “MODULATORS OF G-PROTEIN COUPLED RECEPTORS” (priority 2018, published 2026):
Read-outs that look alike come from different tables or passages of the source. Numbered stars: 1 amine (or outer) side, 2 acyl side, 3 side chain; on linkers, the order of the positions; unused ones are H or OH. Square brackets hold non-standard residues; d marks the D form. Side chains are listed from the residue outwards. Peptide text beside a SMILES is read from it. * marks the point of attachment. γGlu = O=C(O)[C@H](CCC(=O)[*:2])N[*:1]; X2 = O=C(CSCC(=O)*)NCCN1C(=O)CSC1=O; Palmitoyl = CCCCCCCCCCCCCCCC(=O)*; Aib = CC(C)(N)C(=O)O

Assays:
GLP-1R = GLP-1R (Homo sapiens, UniProt P43220); test: HitHunter cAMP assay (GLP-1R); assay type: cell-based; conditions: cAMP; for Emax: read-out: (Emax) GLP-1R
Method in brief: (§1)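 Cells were resuspended in HBSS plus HEPES, IBMX (625 μM) and BSA, then dispensed with antibody at 10,000 per well. Agonists followed as 22-point twofold series, 30 min at room temperature. Antibody reagent and detection steps ran 1 h and overnight in the dark before luminescence.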

GIP-R = biological target: T1, GIP-R (Homo sapiens, UniProt P48546); test: HitHunter cAMP assay (GIP-R); assay type: cell-based; conditions: cAMP; for Emax: read-out: (Emax) GIP-R
T1 sequence (P48546 22-466): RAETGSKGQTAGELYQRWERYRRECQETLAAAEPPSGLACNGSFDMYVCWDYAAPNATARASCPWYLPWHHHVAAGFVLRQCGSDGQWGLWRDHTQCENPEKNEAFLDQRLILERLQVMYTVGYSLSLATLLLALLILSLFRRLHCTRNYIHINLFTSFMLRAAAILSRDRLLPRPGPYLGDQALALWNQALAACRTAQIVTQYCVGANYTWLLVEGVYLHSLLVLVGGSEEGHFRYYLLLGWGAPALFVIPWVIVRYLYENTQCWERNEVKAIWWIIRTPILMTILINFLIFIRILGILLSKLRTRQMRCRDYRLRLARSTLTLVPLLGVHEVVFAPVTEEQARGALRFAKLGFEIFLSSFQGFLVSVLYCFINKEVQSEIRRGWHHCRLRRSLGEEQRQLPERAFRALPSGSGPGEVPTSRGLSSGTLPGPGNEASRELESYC
Method in brief: as §1

[1] = Table 3, read-out: EC50 GLP-1R/nM
[2] = Table 3A, read-out: EC50 GLP-1R/nM
[3] = Table 3, read-out: EC50 GIP-R/nM
[4] = Table 3A, read-out: EC50 GIP-R/nM

Chain of GLP-1R (P43220 24-463): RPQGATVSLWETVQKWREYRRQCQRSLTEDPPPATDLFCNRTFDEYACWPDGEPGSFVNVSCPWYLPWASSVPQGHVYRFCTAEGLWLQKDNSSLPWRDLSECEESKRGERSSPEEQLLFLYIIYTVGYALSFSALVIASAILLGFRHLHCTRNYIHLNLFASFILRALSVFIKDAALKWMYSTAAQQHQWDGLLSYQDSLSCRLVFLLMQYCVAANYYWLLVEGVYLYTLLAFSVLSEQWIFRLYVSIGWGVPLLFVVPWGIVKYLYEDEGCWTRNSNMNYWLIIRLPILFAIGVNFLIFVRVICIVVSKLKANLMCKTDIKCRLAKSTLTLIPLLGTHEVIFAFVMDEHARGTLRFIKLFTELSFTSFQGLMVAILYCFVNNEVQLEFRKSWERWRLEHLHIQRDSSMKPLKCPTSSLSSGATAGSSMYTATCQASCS

| Structure (SMILES) | EC50 (GLP-1R; EC50 GLP-1R/nM, Table 3) [nM] | EC50 (GLP-1R; EC50 GLP-1R/nM, Table 3A) [nM] | Emax (GLP-1R; Table 3) [%] | Emax (GLP-1R; Table 3A) [%] | EC50 (GIP-R; EC50 GIP-R/nM, Table 3) [nM] | EC50 (GIP-R; EC50 GIP-R/nM, Table 3A) [nM] | Emax (GIP-R; Table 3) [%] | Emax (GIP-R; Table 3A) [%] | EC50 (GLP-1R; [1]) [nM] | EC50 (GLP-1R; [2]) [nM] | EC50 (GIP-R; [3]) [nM] | EC50 (GIP-R; [4]) [nM] |
| --- | --- | --- | --- | --- | --- | --- | --- | --- | --- | --- | --- | --- |
| CCCCCCCCCCCCCCCC(=O)N[C@@H](CCC(=O)NCCCC[C@H](NC(=O)[C@H](CO)NC(=O)[C@@H]1CCCN1C(=O)[C@@H]1CCCN1C(=O)[C@@H]1CCCN1C(=O)[C@H](C)NC(=O)CNC(=O)[C@H](CO)NC(=O)[C@H](CO)NC(=O)[C@@H]1CCCN1C(=O)CNC(=O)CNC(=O)[C@H](C)NC(=O)[C@H](CC(C)C)NC(=O)[C@H](CC(C)C)NC(=O)[C@H](Cc1c[nH]c2ccccc12)NC(=O)[C@H](CC(N)=O)NC(=O)[C@@H](NC(=O)[C@H](Cc1ccccc1)NC(=O)[C@H](CCC(=O)O)NC(=O)C(C)(C)NC(=O)[C@H](C)NC(=O)[C@H](C)NC(=O)[C@H](CCC(N)=O)NC(=O)[C@H](CCCCN)NC(=O)[C@H](CC(=O)O)NC(=O)[C@H](CC(C)C)NC(=O)[C@H](Cc1ccc(O)cc1)NC(=O)[C@@H](NC(=O)[C@H](CO)NC(=O)[C@H](Cc1ccc(O)cc1)NC(=O)[C@H](CC(=O)O)NC(=O)[C@H](CO)NC(=O)[C@@H](NC(=O)[C@H](Cc1ccccc1)NC(=O)[C@@H](NC(=O)CNC(=O)[C@H](CCC(=O)O)NC(=O)CSCC(=O)NCCN1C(=O)C[C@H](O)C1=O)[C@@H](C)O)[C@@H](C)O)[C@@H](C)CC)C(C)C)C(N)=O)C(=O)O [Compound 78] | 0.1 to 1 | 0.1 to 1 | 94 | 94 | 1 to 10 | 1 to 10 | 58 | 58 | – | – | – | – |
| CCCCCCCCCCCCCCCC(=O)N[C@@H](CCC(=O)NCCCC[C@H](NC(=O)[C@H](CO)NC(=O)[C@@H]1CCCN1C(=O)[C@@H]1CCCN1C(=O)[C@@H]1CCCN1C(=O)[C@H](C)NC(=O)CNC(=O)[C@H](CO)NC(=O)[C@H](CO)NC(=O)[C@@H]1CCCN1C(=O)CNC(=O)CNC(=O)[C@H](C)NC(=O)[C@H](CC(C)C)NC(=O)[C@H](CC(C)C)NC(=O)[C@H](Cc1c[nH]c2ccccc12)NC(=O)[C@H](CC(N)=O)NC(=O)[C@@H](NC(=O)[C@H](Cc1ccccc1)NC(=O)[C@H](CCC(=O)O)NC(=O)C(C)(C)NC(=O)[C@@H](NC(=O)[C@H](C)NC(=O)[C@H](CCC(N)=O)NC(=O)[C@H](CCCCN)NC(=O)[C@H](CC(=O)O)NC(=O)[C@H](CC(C)C)NC(=O)[C@H](Cc1ccc(O)cc1)NC(=O)[C@@H](NC(=O)[C@H](CO)NC(=O)[C@H](Cc1ccc(O)cc1)NC(=O)[C@H](CC(=O)O)NC(=O)[C@H](CO)NC(=O)[C@@H](NC(=O)[C@H](Cc1ccccc1)NC(=O)[C@@H](NC(=O)CNC(=O)[C@H](CCC(=O)O)NC(=O)CSCC(=O)NCCN1C(=O)CSC1=O)[C@@H](C)O)[C@@H](C)O)[C@@H](C)CC)C(C)C)C(C)C)C(N)=O)C(=O)O [Compound 80] (X2-EGTFTSDYSIYLDKQAV[Aib]EFVNWLLAGGPSSGAPPPSK([γGlu-Palmitoyl])-NH2) | – | – | 92 | 92 | – | – | 73 | 73 | 0.1 to 1 | 0.1 to 1 | 1 to 10 | 1 to 10 |
| CCCCCCCCCCCCCCCC(=O)N[C@@H](CCC(=O)NCCCC[C@H](NC(=O)[C@H](CO)NC(=O)[C@@H]1CCCN1C(=O)[C@@H]1CCCN1C(=O)[C@@H]1CCCN1C(=O)[C@H](C)NC(=O)CNC(=O)[C@H](CO)NC(=O)[C@H](CO)NC(=O)[C@@H]1CCCN1C(=O)CNC(=O)CNC(=O)[C@H](C)NC(=O)[C@H](CC(C)C)NC(=O)[C@H](CC(C)C)NC(=O)[C@H](Cc1c[nH]c2ccccc12)NC(=O)[C@H](CC(N)=O)NC(=O)[C@@H](NC(=O)[C@H](Cc1ccccc1)NC(=O)[C@H](CCC(=O)O)NC(=O)C(C)(C)NC(=O)[C@H](C)NC(=O)[C@H](C)NC(=O)[C@H](CCC(N)=O)NC(=O)[C@H](CCCCN)NC(=O)[C@H](CC(=O)O)NC(=O)[C@H](CC(C)C)NC(=O)[C@H](Cc1ccc(O)cc1)NC(=O)[C@@H](NC(=O)[C@H](CO)NC(=O)[C@H](Cc1ccc(O)cc1)NC(=O)[C@H](CC(=O)O)NC(=O)[C@H](CO)NC(=O)[C@@H](NC(=O)[C@H](Cc1ccccc1)NC(=O)[C@@H](NC(=O)CNC(=O)[C@H](CCC(=O)O)NC(=O)CSCC(=O)NCCN1C(=O)CC(C)(C)CC1=O)[C@@H](C)O)[C@@H](C)O)[C@@H](C)CC)C(C)C)C(N)=O)C(=O)O [Compound 82] | 1 to 10 | 1 to 10 | 95 | 95 | 1 to 10 | 1 to 10 | 82 | 82 | – | – | – | – |
| CCCCCCCCCCCCCCCC(=O)N[C@@H](CCC(=O)NCCCC[C@H](NC(=O)[C@H](CO)NC(=O)[C@@H]1CCCN1C(=O)[C@@H]1CCCN1C(=O)[C@@H]1CCCN1C(=O)[C@H](C)NC(=O)CNC(=O)[C@H](CO)NC(=O)[C@H](CO)NC(=O)[C@@H]1CCCN1C(=O)CNC(=O)CNC(=O)[C@H](C)NC(=O)[C@H](CC(C)C)NC(=O)[C@H](CC(C)C)NC(=O)[C@H](Cc1c[nH]c2ccccc12)NC(=O)[C@H](CC(N)=O)NC(=O)[C@@H](NC(=O)[C@H](Cc1ccccc1)NC(=O)[C@H](CCC(=O)O)NC(=O)C(C)(C)NC(=O)[C@H](C)NC(=O)[C@H](C)NC(=O)[C@H](CCC(N)=O)NC(=O)[C@H](CCCCN)NC(=O)[C@H](CC(=O)O)NC(=O)[C@H](CC(C)C)NC(=O)[C@H](Cc1ccc(O)cc1)NC(=O)[C@@H](NC(=O)[C@H](CO)NC(=O)[C@H](Cc1ccc(O)cc1)NC(=O)[C@H](CC(=O)O)NC(=O)[C@H](CO)NC(=O)[C@@H](NC(=O)[C@H](Cc1ccccc1)NC(=O)[C@@H](NC(=O)CNC(=O)[C@H](CCC(=O)O)NC(=O)CSCC(=O)NCCN1C(=O)CNC1=O)[C@@H](C)O)[C@@H](C)O)[C@@H](C)CC)C(C)C)C(N)=O)C(=O)O [Compound 84] | – | – | 107 | 107 | – | – | 53 | 53 | 0.1 to 1 | 0.1 to 1 | 1 to 10 | 1 to 10 |
| CCCCCCCCCCCCCCCC(=O)N[C@@H](CCC(=O)NCCCC[C@H](NC(=O)[C@H](CO)NC(=O)[C@@H]1CCCN1C(=O)[C@@H]1CCCN1C(=O)[C@@H]1CCCN1C(=O)[C@H](C)NC(=O)CNC(=O)[C@H](CO)NC(=O)[C@H](CO)NC(=O)[C@@H]1CCCN1C(=O)CNC(=O)CNC(=O)[C@H](C)NC(=O)[C@H](CC(C)C)NC(=O)[C@H](CC(C)C)NC(=O)[C@H](Cc1c[nH]c2ccccc12)NC(=O)[C@H](CC(N)=O)NC(=O)[C@@H](NC(=O)[C@H](Cc1ccccc1)NC(=O)[C@H](CCC(=O)O)NC(=O)C(C)(C)NC(=O)[C@H](C)NC(=O)[C@H](C)NC(=O)[C@H](CCC(N)=O)NC(=O)[C@H](CCCCN)NC(=O)[C@H](CC(=O)O)NC(=O)[C@H](CC(C)C)NC(=O)[C@H](Cc1ccc(O)cc1)NC(=O)[C@@H](NC(=O)[C@H](CO)NC(=O)[C@H](Cc1ccc(O)cc1)NC(=O)[C@H](CC(=O)O)NC(=O)[C@H](CO)NC(=O)[C@@H](NC(=O)[C@H](Cc1ccccc1)NC(=O)[C@@H](NC(=O)CNC(=O)[C@H](CCC(=O)O)NC(=O)CSCC(=O)NCCN1C(=O)NC(C)(C)C1=O)[C@@H](C)O)[C@@H](C)O)[C@@H](C)CC)C(C)C)C(N)=O)C(=O)O [Compound 87] | – | – | 89 | 89 | – | – | 62 | 62 | 1 to 10 | 1 to 10 | 1 to 10 | 1 to 10 |
| CCCCCCCCCCCCCCCC(=O)N[C@@H](CCC(=O)NCCCC[C@H](NC(=O)[C@H](CO)NC(=O)[C@@H]1CCCN1C(=O)[C@@H]1CCCN1C(=O)[C@@H]1CCCN1C(=O)[C@H](C)NC(=O)CNC(=O)[C@H](CO)NC(=O)[C@H](CO)NC(=O)[C@@H]1CCCN1C(=O)CNC(=O)CNC(=O)[C@H](C)NC(=O)[C@H](CC(C)C)NC(=O)[C@H](CC(C)C)NC(=O)[C@H](Cc1c[nH]c2ccccc12)NC(=O)[C@H](CC(N)=O)NC(=O)[C@@H](NC(=O)[C@H](Cc1ccccc1)NC(=O)[C@H](CCC(=O)O)NC(=O)C(C)(C)NC(=O)[C@H](C)NC(=O)[C@H](C)NC(=O)[C@H](CCC(N)=O)NC(=O)[C@H](CCCCN)NC(=O)[C@H](CC(=O)O)NC(=O)[C@H](CC(C)C)NC(=O)[C@H](Cc1ccc(O)cc1)NC(=O)[C@@H](NC(=O)[C@H](CO)NC(=O)[C@H](Cc1ccc(O)cc1)NC(=O)[C@H](CC(=O)O)NC(=O)[C@H](CO)NC(=O)[C@@H](NC(=O)[C@H](Cc1ccccc1)NC(=O)[C@@H](NC(=O)CNC(=O)[C@H](CCC(=O)O)NC(=O)CSCC(=O)NCCN1C(=O)[C@H](C)C[C@H](C)C1=O)[C@@H](C)O)[C@@H](C)O)[C@@H](C)CC)C(C)C)C(N)=O)C(=O)O [Compound 88] | 1 to 10 | 1 to 10 | 108 | 108 | 1 to 10 | 1 to 10 | 102 | 102 | – | – | – | – |
